Data as given in patent US9334289B2, “Cephem compound having catechol or pseudo-catechol structure” (SHIONOGI & CO., LTD., priority 2011, dated 2016).
≈ marks a conversion by molar mass, not a printed value.

Columns and labels:
Assay in all cases: MIC, CLSI broth microdilution, Test Example 1
Format in all cases: cell-based
P. aeruginosa SR24 = settings: Pseudomonas aeruginosa, SR24; Ceftazidime resistance strain; cation-adjusted Mueller Hinton broth containing human apo-transferrin; 5×10^5 cfu/mL; read-out: Minimum Inhibitory Concentration (MIC) P. aeruginosa SR24
A. baumannii SR27323 = settings: Acinetobacter baumannii, SR27323; OXA-23, OXA-58 carbapenemase producing strain; cation-adjusted Mueller Hinton broth containing human apo-transferrin; 5×10^5 cfu/mL; read-out: Minimum Inhibitory Concentration (MIC) A. baumannii SR27323
Method: (§1) Measurement of Minimum Inhibitory Concentration (MIC: μg/mL) was conducted according to CLSI (Clinical and Laboratory Standards Institute) method, and the amount of bacteria for inoculation was 5×10^5 cfu/mL, and cation-adjusted Mueller Hinton broth containing human apo-transferrin was used as a test medium, and the experiment was conducted using broth microdilution method. The bacteria used are listed below.

E. coli ATCCBAA-199 = settings: Escherichia coli, ATCCBAA199; SHV-3 ESBL producing strain; cation-adjusted Mueller Hinton broth containing human apo-transferrin; 5×10^5 cfu/mL; read-out: Minimum Inhibitory Concentration (MIC) E. coli ATCC BAA-199
Method: as §1

E. coli ATCCBAA-200 = settings: Escherichia coli, ATCCBAA200; SHV-4 ESBL producing strain; cation-adjusted Mueller Hinton broth containing human apo-transferrin; 5×10^5 cfu/mL; read-out: Minimum Inhibitory Concentration (MIC) E. coli ATCC BAA-200
Method: as §1

[1] = system: K. pneumoniae ATCCBAA-1705; settings: Klebsiella pneumoniae, ATCCBAA1705; KPC-2 carbapenemase producing strain; cation-adjusted Mueller Hinton broth containing human apo-transferrin; 5×10^5 cfu/mL; read-out: Minimum Inhibitory Concentration (MIC) K. pneumoniae ATCCBAA-1705
Method: as §1

P. aeruginosa SR24837 = settings: Pseudomonas aeruginosa, SR24837; PER-1 ESBL producing strain; cation-adjusted Mueller Hinton broth containing human apo-transferrin; 5×10^5 cfu/mL; read-out: Minimum Inhibitory Concentration (MIC) P. aeruginosa SR24837
Method: as §1

P. aeruginosa SR27060 = settings: Pseudomonas aeruginosa, SR27060; IMP-1 MBL producing strain (carbapenem resistance strain); cation-adjusted Mueller Hinton broth containing human apo-transferrin; 5×10^5 cfu/mL; read-out: Minimum Inhibitory Concentration (MIC) P. aeruginosa SR27060
Method: as §1

SMILES | MIC (P. aeruginosa SR24) [µg/mL] | MIC (A. baumannii SR27323) [µg/mL] | MIC (E. coli ATCCBAA-199) [µg/mL] | MIC (E. coli ATCCBAA-200) [µg/mL] | MIC [1] [µg/mL] | MIC (P. aeruginosa SR24837) [µg/mL] | MIC (P. aeruginosa SR27060) [µg/mL]
Nc1nc(/C(=N/O[C@@H](CC(=O)[O-])C(=O)[O-])C(=O)N[C@@H]2C(=O)N3C(c4nnn[n-]4)=C(C[N+]4(CCNC(=O)c5ccc(O)c(O)c5Cl)CCCC4)CS[C@H]23)cs1.[Na+].[Na+] [Compound I-3] | 0.5 | 0.25 | ≤ 0.031 | 0.063 | ≤ 0.031 | 2 | 1
C[N+]1(CC2=C(c3nnn[n-]3)N3C(=O)[C@@H](NC(=O)/C(=N\O[C@@H](CC(=O)[O-])C(=O)[O-])c4csc(N)n4)[C@H]3SC2)[C@@H]2CC[C@H]1C[C@@H](NC(=O)c1ccc(O)c(O)c1Cl)C2.[Na+].[Na+] (stereo partly shown) [Compound I-14] | 0.5 | 0.125 | 0.25 | 1 | ≤ 0.031 | 8 | 1
CC(C)(O/N=C(\C(=O)N[C@@H]1C(=O)N2C(c3nn[n-]n3)=C(C[N+]3(C)CCC(NC(=O)c4ccc(O)c(O)c4Cl)CC3)CS[C@H]12)c1csc(N)n1)C(=O)[O-].[Na+] (stereo partly shown) [Compound I-47] | 0.125 | 0.25 | 0.5 | 1 | 0.063 | 0.5 | 1
CC(C)(O/N=C(\C(=O)N[C@@H]1C(=O)N2C(c3nnn[nH]3)=C(C[n+]3ccc(NC(=O)c4ccc(O)c(O)c4Cl)c4ccccc43)CS[C@H]12)c1csc(N)n1)C(=O)[O-] [Compound I-78] | 0.125 (≈ 0.155 µM) | 0.25 (≈ 0.31 µM) | 0.25 (≈ 0.31 µM) | 0.5 (≈ 0.62 µM) | ≤ 0.031 | 0.125 (≈ 0.155 µM) | 0.25 (≈ 0.31 µM)
CC(C)(O/N=C(\C(=O)N[C@@H]1C(=O)N2C(c3nnn[n-]3)=C(C[N+]3(CCNC(=O)c4ccc(O)c(O)c4Cl)CCCC3)C[S+]([O-])[C@H]12)c1csc(N)n1)C(=O)[O-].[Na+] (stereo partly shown) [Compound I-7] | 2 | 16 | 0.25 | 0.5 | 0.063 | 1 | 4
CC(C)(O/N=C(\C(=O)N[C@@H]1C(=O)N2C(c3nnn[n-]3)=C(C[N+]3(C)[C@@H]4CC[C@H]3C[C@@H](NC(=O)c3ccc(O)c(O)c3Cl)C4)CS[C@H]12)c1csc(N)n1)C(=O)[O-].[Na+] (stereo partly shown) [Compound I-2] | 0.25 | 1 | 0.5 | 1 | ≤ 0.031 | 0.25 | 1

Other lines, results leading:

MIC (P. aeruginosa SR24) [µg/mL] | MIC (A. baumannii SR27323) [µg/mL] | MIC (E. coli ATCCBAA-199) [µg/mL] | MIC (E. coli ATCCBAA-200) [µg/mL] | MIC [1] [µg/mL] | MIC (P. aeruginosa SR24837) [µg/mL] | MIC (P. aeruginosa SR27060) [µg/mL] | SMILES
0.25 | 0.125 | 0.5 | 1 | 0.063 | 2 | 0.5 | CC(C)(O/N=C(\C(=O)N[C@@H]1C(=O)N2C(c3nnn[n-]3)=C(C[N+]34CCC[C@H]3CN(C(=O)c3cc(O)c(O)c(F)c3)CC4)CS[C@H]12)c1csc(N)n1)C(=O)[O-].[Na+] (stereo partly shown) [Compound I-5]
≤ 0.031 | 0.125 | ≤ 0.031 | 0.063 | ≤ 0.031 | ≤ 0.031 | 0.25 | CC(C)(O/N=C(\C(=O)N[C@@H]1C(=O)N2C(c3nnn[n-]3)=C(C[n+]3ccc4cc(O)c(O)cc4c3)CS[C@H]12)c1csc(N)n1)C(=O)[O-].[Na+] [Compound I-77]
0.25 | 1 | 0.125 | 0.5 | ≤ 0.031 | 2 | 1 | CC(C)(O/N=C(\C(=O)N[C@@H]1C(=O)N2C(c3nnn[n-]3)=C(C[N+]3(CCNC(=O)c4cc(O)c(O)c(Cl)c4)CCCC3)CS[C@H]12)c1csc(N)n1)C(=O)[O-].[Na+] [Compound I-52]
≤ 0.031 | 0.5 | 0.25 | 0.25 | ≤ 0.031 | 0.125 | 0.25 | CC(C)(O/N=C(\C(=O)N[C@@H]1C(=O)N2C(c3nn[n-]n3)=C(C[n+]3ccc(C(=O)c4ccc(O)c(O)c4Cl)cc3)CS[C@H]12)c1csc(N)n1)C(=O)[O-].[Na+] [Compound I-48]
